Assay results from patent publication US7582300B2, “Modulation of gamma delta T cells to regulate airway hyperresponsiveness” (National Jewish Health, priority 1999, dated 2009).

How the values were obtained:
[1] = test system: γδ T cells; experiment: Stimulation of γδ T cells / γδ T cell hybridomas in vitro; format: cell-based; details: for stimulation of γδ T cell hybridomas: phospholipids tested by the inventors
[2] = test system: αβ T cell hybridomas; experiment: Stimulation of αβ T cell hybridomas in vitro; format: cell-based

Substance | stimulation of γδ T cell hybridomas [1] | stimulation of αβ T cell hybridomas [2] | stimulation of γδ T cells by peptides [1]
Cardiolipin | selectively stimulates γδ T cell hybridomas | not αβ T cell hybridomas | –
FGLQLEL (listed as Mycobacterium leprae) [SEQ ID NO:2, peptide from mycobacterial HSP-60 protein (from M. leprae)] | – | – | stimulatory for γδ T cells
phosphatidyl-glycerol | weakly stimulatory | – | –
FALQLEL [SEQ ID NO:1] | – | – | stimulatory for γδ T cells
